Laboratory results published in patent publication US20220280594A1, “APPLICATION OF POLYPEPTIDE OR DERIVATIVE THEREOF” (CHENGDU HUITAI BIOMEDICINE CO., LTD., priority 2019, published 2022).
Ends that are not written are not given here. PEG = not defined here

Assays:
Type in all cases: cell-based
[1] = test system: human pancreatic cancer cells (PANC-1); assay: transwell migration assay, PANC-1 cells; settings: PANC-1 transwell migration, 10 μM, 24 hours; control group 360 ± 60
Outline: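 Serum-free PANC-1 cells placed in the upper transwell chamber with complete medium below; after 4-5 h, peptide added to the upper chamber at a final 10 μM. Migration ran 24 h at 37 °C; cells on the membrane underside were methanol-fixed, crystal violet-stained and counted by microscopy.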

[2] = test system: human oral epidermoid carcinoma KB cells; assay: scratch assay, migration of KB cells; settings: 10 μM, 48 hours, control group 54.03 ± 4.21
Outline: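 Monolayers of KB cells were scratched, washed with PBS, then cultured 48 hours in 2% FBS medium containing test polypeptide (10 μM) or PBS control, in triplicate wells. From images, migration rate (%) = (original − current scratch width)/original width × 100.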

[3] = test system: human lung squamous carcinoma cells (NCI-H226); assay: scratch assay, migration of NCI-H226 cells; settings: NCI-H226, 10 μM, 48 hours; control group 65.31 ± 3.19
Outline: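 A straight scratch was made in confluent NCI-H226 monolayers (1-2×10^5 cells/well). Cells were then kept 48 h in 2% FBS medium with 10 μM polypeptide or PBS control, triplicate wells. Migration rate (%) = (original − current scratch width)/original width ×100, from imaged scratch widths.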

[4] = test system: human pharyngeal squamous-cell carcinoma cells (Fadu); assay: scratch assay, migration of Fadu cells; settings: 10 μM, 48 hours, control group 28.76 ± 4.08
Outline: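 Confluent Fadu monolayers scratched, then cultured 48 h with 10 μM polypeptide in medium with 2% FBS; PBS control, triplicate wells. Migration rate (%) = (original − current scratch width)/original width × 100, from ≥3 images per well.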

[5] = test system: human prostate cancer cells (22RV1); assay: scratch assay, migration of 22RV1 cells; settings: 22RV1, 10 μM, 48 hours; control group 25.41 ± 5.01
Outline: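 22RV1 monolayers (seeded 1-2×10^5 cells/well) were scratched, washed, then given 2% FBS medium with 10 μM polypeptide or PBS, triplicate wells, for 48 h. Migration rate (%) = (original − current scratch width)/original width ×100, from ≥3 images per well.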

[6] = test system: human liver cancer cells (HepG2); assay: scratch assay, migration of HepG2 cells; settings: HepG2, 10 μM, 48 hours; control group 71.01 ± 6.63
Outline: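 HepG2 monolayers scratched, then cultured 48 h in 2% FBS medium with test polypeptides at 10 μM versus PBS control, triplicate wells. Migration rate (%) computed from original versus current scratch width in images.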

[7] = test system: human breast cancer cells (MDA-MB-453); assay: scratch assay, migration of MDA-MB-453 cells; settings: MDA-MB-453, 10 μM, 48 hours; control group 32.42 ± 2.04
Outline: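 Confluent MDA-MB-453 monolayers were scratched, then treated with peptide at 10 μM in 2% FBS medium for 48 h, with a PBS control and triplicate wells. Migration rate (%) was taken as (original − current scratch width)/original width ×100 from images.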

[8] = test system: human breast cancer cells (MCF-7); assay: scratch assay, migration of MCF-7 cells; settings: MCF-7, 10 μM, 48 hours; control group 30.97 ± 1.79
Outline: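 MCF-7 monolayers scratched, then cultured 48 hours in 2% FBS medium with test peptide at 10 μM versus PBS control, triplicate wells. Migration rate (%) = (original − current scratch width)/original width × 100, measured from images.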

| Substance | Number of cells (mean ± SD, P), migrated cells [1] | Migration rate (%) (mean ± SD, P) [2] | Migration rate (%) (mean ± SD, P) [3] | Migration rate (%) (mean ± SD, P) [4] | Migration rate (%) (mean ± SD, P) [5] | Migration rate (%) (mean ± SD, P) [6] | Migration rate (%) (mean ± SD, P) [7] | Migration rate (%) (mean ± SD, P) [8] |
| --- | --- | --- | --- | --- | --- | --- | --- | --- |
| N48: SEQ ID NO: 1 with A7R, deletion of position 11 and position 18, PEG modification at the carboxyl terminal (YRVRFLRKENTQDAED-{PEG}; reading uncertain) | 152 ± 18,*** | 9.09 ± 4.23,*** % | 25.07 ± 4.31,*** % | 8.78 ± 4.34,*** % | 5.61 ± 3.14,** % | 25.43 ± 5.00,*** % | 12.62 ± 3.25,** % | 15.62 ± 2.70,* % |
| N49: SEQ ID NO: 1 with A7R, deletion of positions 1-2 and position 18, PEG modification at the carboxyl terminal (VRFLRKENVTQDAED-{PEG}; reading uncertain) | 137 ± 29,*** | 16.51 ± 3.93,** % | 38.90 ± 5.49,** % | 6.29 ± 2.62,*** % | 6.18 ± 1.89,** % | 16.45 ± 5.88,*** % | 15.79 ± 4.48,** % | 7.29 ± 3.80,** % |
| N50: SEQ ID NO: 1 with N18R, addition of 2 amino acid at the carboxyl terminal, PEG modification at the amino terminal ({PEG}-YRVRFLAKENVTQDAEDRCT; reading uncertain) | 230 ± 11,** | 15.97 ± 2.93,** % | 33.20 ± 3.59,** % | 5.44 ± 1.44,*** % | 6.20 ± 3.31,** % | 16.03 ± 4.37,*** % | 18.35 ± 3.91,** % | 6.83 ± 4.55,** % |
| N51: SEQ ID NO: 1 with A15R, one amino acid added at each terminal, PEG modification at the amino terminal ({PEG}-FYRVRFLAKENVTQDREDNC; reading uncertain) | 214 ± 17,*** | 37.96 ± 3.60,* % | 33.16 ± 4.43,** % | 8.71 ± 1.79,*** % | 5.23 ± 2.42,** % | 28.61 ± 5.89,** % | 10.6 ± 2.33,*** % | 8.56 ± 4.18,** % |
| N52: SEQ ID NO: 1 with N18R, addition of two amino acids and PEG modification at the carboxyl terminal (YRVRFLAKENVTQDAEDRCT-{PEG}; reading uncertain) | 153 ± 16,*** | 9.57 ± 1.61,*** % | 27.19 ± 4.67,*** % | 7.76 ± 2.08,*** % | 5.43 ± 1.97,** % | 15.39 ± 7.19,*** % | 13.87 ± 3.13,*** % | 7.23 ± 2.41,** % |
| N53: SEQ ID NO: 1 with A15R, one amino acid added at each terminal, PEG modification at the carboxyl terminal (FYRVRFLAKENVTQDREDNC-{PEG}; reading uncertain) | 131 ± 8,*** | 8.83 ± 1.75,*** % | 41.05 ± 4.60,** % | 13.8 ± 3.05,** % | 10.75 ± 3.22,* % | 35.85 ± 4.32,** % | 8.02 ± 3.35,*** % | 9.45 ± 2.39,** % |
| N54: SEQ ID NO: 1 with A7R, addition of two amino acids and PEG modification at the carboxyl terminal (YRVRFLRKENVTQDAEDNTC-{PEG}; reading uncertain) | 128 ± 19,*** | 6.91 ± 3.44,*** % | 24.66 ± 5.13,*** % | 15.88 ± 5.38,* % | 12.94 ± 2.70,* % | 46.62 ± 3.73,** % | 3.19 ± 1.08,*** % | 16.52 ± 2.93,* % |
